# From patent US20210347785A1, “PREPARATION AND APPLICATION OF AROMATIC COMPOUND HAVING IMMUNOREGULATORY FUNCTION” (SHANGHAI ENNOVABIO PHARMACEUTICALS CO., LTD., priority 2018, published 2021)
# Biological target: T1, PD-1/PD-L1 (Homo sapiens, UniProt Q9NZQ7)
# T1 construct: purchased Cisbio 63ADK000CPDEC
# Test: PD-1/PD-L1 homogeneous time-resolved fluorescence (HTRF) binding assay
# Settings: 665 nm/620 nm ratio
# Source text: Test Example 1: Detect the Inhibitory Effect of the Compound to the Binding of PD-1/PD-L1 Protein
# The PD-1/PD-L1 homogeneous time-resolved fluorescence method is used to detect the binding ability of the compound with PD-L1.
# PD-1/PD-L1 binding assay kit (Cisbio, Cat #63ADK000CPDEC) was chosen, which contains two proteins Tag 1-PD-L1 and Tag 2-PD-1, and two antibodies Anti-Tag1-Eu^3+ and Anti-Tag2-XL 665. The principle of detection was: Anti-tag1-Eu^3+ was used as the donor of HTRF, and Anti-Tag2-XL 665 was used as the acceptor of HTRF. When Tag 1-PD-L1 interacts with Tag 2-PD-1, the added HTRF donor and the acceptor are close to each other. After the donor has received the excitation energy, part of the energy was transferred to the acceptor, thus generating 665 nm emission light. […] The inhibitory effect of the compound can be determined by comparing the ratio of 665 nm/620 nm. Tag 1-PD-L1 was diluted with Diluent buffer (cat #62DLBDDF) to a working concentration of 10 nM, Tag 2-PD-1 was diluted with Diluent buffer to a working concentration of 500 nM, Anti-Tag1-Eu^3+ was diluted with detection buffer (cat #62DB1FDG) at a ratio of 1:100, Anti-Tag2-XL 665 was diluted with detection buffer at a ratio of 1:20, and the compound to be detected was diluted with diluent buffer to a final concentration of 2×. Compound solution (2 μL) was added to each well of a 384-well plate, then Tag 1-PD-L1 (4 μL) and Tag 2-PD-1 (4 μL) were added successively. The mixture was incubated at room temperature for 15 minutes. Then Anti-Tag1-Eu^3+ (5 μL) and Anti-Tag2-XL 665 (5 μL) were added, and the mixture was incubated overnight at room temperature. BioTek Synergy™ Neo2 multifunctional microplate reader was used to detect so as to provide the 665 nm/620 nm ratio. PrismGraphd 5.02 was used to fit the IC50 curve.
# T1 sequence (Q9NZQ7 19-238 limits assumed): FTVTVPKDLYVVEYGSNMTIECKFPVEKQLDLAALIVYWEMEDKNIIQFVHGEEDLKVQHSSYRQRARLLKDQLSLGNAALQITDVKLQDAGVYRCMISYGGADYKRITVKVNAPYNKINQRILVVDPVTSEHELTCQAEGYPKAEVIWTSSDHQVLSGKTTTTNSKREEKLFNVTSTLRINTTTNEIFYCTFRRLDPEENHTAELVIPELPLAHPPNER
row,Structure (SMILES),IC50 [nM]
1,"Cc1c(Nc2csc3cc(CNCCO)cnc23)cccc1-c1ccccc1 [Compound 1, 2-(((3-((2-Methyl-[1,1′-biphenyl]-3-yl)amino)thieno[3,2-b]pyridin-6-yl)methyl)amino)ethane-1-ol]",< 100
2,"Cc1c(Nc2csc3cc(CN4C[C@@H](O)C[C@H]4C(=O)O)cnc23)cccc1-c1ccccc1 [Compound 2, (2S,4S)-4-hydroxy-1-((3-((2-methyl-[1,1′-biphenyl]-3-yl)amino)thieno[3,2-b]pyridine-6-yl)methyl)pyrrolidine-2-carboxylic acid]",< 100
3,"NC(=O)CNCc1nc2c(Nc3cccc(-c4ccccc4)c3Cl)nccc2s1 [Compound 3, 2-(((4-((2-chloro-[1,1′-biphenyl]-3-yl)amino)thiazolo[4,5-c]pyridin-2-yl)methyl)amino) acetamide]",< 100
4,O=C(O)[C@@H]1C[C@H](O)CN1Cc1nc2c(Nc3cccc(-c4ccccc4)c3Cl)nccc2s1 [Compound 4],< 100
5,"OCCNCc1nc2c(Nc3cccc(-c4ccccc4)c3Cl)nccc2s1 [Compound 5, 2-(((4-((2-Chloro-[1,1′-biphenyl]-3-yl)amino)thiazolo[4,5-c]pyridin-2-yl)methyl)amino)ethane-1-ol]",< 100
6,"O[C@@H]1CCN(Cc2nc3c(Nc4cccc(-c5ccccc5)c4Cl)nccc3s2)C1 [Compound 6, (R)-1-((4-((2-Chloro-[1,1′-biphenyl]-3-yl)amino)thiazolo[4,5-c]pyridin-2-yl)methyl)pyrrolidin-3-ol]",100 to 1000
7,"O[C@H]1CCN(Cc2nc3c(Nc4cccc(-c5ccccc5)c4Cl)nccc3s2)C1 [Compound 7, (S)-1-((4-((2-Chloro-[1,1′-biphenyl]-3-yl)amino)thiazolo[4,5-c]pyridin-2-yl)methyl)pyrrolidin-3-ol]",100 to 1000
8,"O=C(O)CNCc1nc2c(Nc3cccc(-c4ccccc4)c3Cl)nccc2s1 [Compound 8, ((4-((2-Chloro-[1,1′-biphenyl]-3-yl)amino)thiazolo[4,5-c]pyridin-2-yl)methyl)glycine]",< 100
9,"OCCNCc1nc2c(Nc3cccc(-c4ccc5c(c4)OCCO5)c3Cl)nccc2s1 [Compound 10, 2-(((4-((2-chloro-3-(2,3-dihydrobenzo[b][1,4]dioxin-6-yl)phenyl)amino)thiazolo[4,5-c)pyridin-2-yl)methyl)amino)ethane-1-ol]",< 100
10,"OCCNCc1nc2c(Nc3cccc(-c4cccc(OCCCCN5CCC(O)C5)c4)c3Cl)nccc2s1 (centres unmarked) [Compound 12, 1-(4-((2′-chloro-3′-((2-(((2-hydroxyethyl)amino)methyl)thiazolo[4,5-c]pyridin-4-yl)amino)-[1,1′-biphenyl]-3-yl)oxo)butyl)pyrrolidin-3-ol]",< 100
11,"CN(CCCO)CCCOc1cccc(-c2cccc(Nc3nccc4sc(CNCC(=O)O)nc34)c2Cl)c1 [Compound 14, ((4-((2-chloro-3′-(3-((3-hydroxypropyl)(methyl)amino)propoxy)-[1,1′-biphenyl]-3-yl)amino)thiazolo[4,5-c]pyridin-2-yl)methyl)glycine]",< 100
12,"O=C(O)CNCc1nc2c(Nc3cccc(-c4cccc(OCCCN5CCC(O)C5)c4)c3Cl)nccc2s1 (centres unmarked) [Compound 15, ((4-((2-chloro-3′-(3-(3-hydroxypyrrolidine-1-yl)propoxy)-[1,1′-biphenyl]-3-yl)amino)thiazolo[4,5-c]pyridine-2-yl)methyl)glycine]",< 100
13,"Cc1c(OCCCN2CCC(O)C2)cccc1-c1cccc(Nc2nccc3sc(CNCC(=O)O)nc23)c1Cl (centres unmarked) [Compound 16, ((4-((2-chloro-3′-(3-(3-hydroxypyrrolidin-1-yl)propoxy)-2′-methyl-[1,1′-biphenyl]-3-yl)amino)thiazolo[4,5-c]pyridin-2-yl)methyl)glycine]",< 100
14,"OCCNCc1nc2ccnc(Nc3cccc(-c4ccccc4)c3Cl)c2s1 [Compound 17, 2-(((4-((2-chloro-[1,1′-biphenyl]-3-yl)amino)thiazolo[5,4-c]pyridin-2-yl)methyl)amino)ethane-1-ol]",100 to 1000
15,"COc1nc(-c2cccc(-c3cccc(Nc4nccc5sc(CNCC(=O)O)nc45)c3Cl)c2Cl)ccc1CNC[C@@H]1CCC(=O)N1 [Compound 18, (S)-((4-((2,2′-dichloro-3′-(6-methoxy-5-((((5-carbonylpyrrolidin-2-yl)methyl)amino)methyl)pyridin-2-yl)-[1,1′-biphenyl]-3-yl)amino)thiazolo[4,5-c]pyridin-2-yl)methyl)glycine]",< 100
16,"COc1nc(-c2cccc(-c3cccc(Nc4nccc5sc(CNCC(=O)OCc6oc(=O)oc6C)nc45)c3Cl)c2Cl)ccc1CNC[C@@H]1CCC(=O)N1 [Compound 19, (5-methyl-2-carbonyl-1,3-dioxazole-4-yl) methyl (S)-((4-((2,2′-dichloro-3′-(6-methoxy-5-((5-carbonylpyrrolidin-2-yl)methyl)pyridine-2-yl)-[1,1′-biphenyl]-3-yl)amino)thiazolo [4,5-c]pyridine-2-yl)methyl) glycine]",< 100
17,COc1nc(-c2cccc(-c3cccc(Nc4nccc5sc(CNCC(=O)O)nc45)c3Cl)c2C)ccc1CNC[C@@H]1CCC(=O)N1 [Compound 20],< 100

# Now from value to molecule:
row,IC50 [nM],Structure (SMILES)
1,< 100,Cc1c(-c2ccc(CNC[C@@H]3CCC(=O)N3)c(O)n2)cccc1-c1cccc(Nc2nccc3sc(CNCC(=O)O)nc23)c1Cl [Compound 21]
2,< 100,COc1nc(-c2cccc(-c3cccc(Nc4nccc5sc(CNCC(=O)O)nc45)c3Cl)c2Cl)ccc1CN1CC2(CCC(=O)N2)C1 [Compound 22]
3,< 100,O=C(O)CNCc1nc2c(Nc3cccc(-c4cccc(-c5ccc(CNC[C@@H]6CCC(=O)N6)c(O)n5)c4Cl)c3Cl)nccc2n1CCO [Compound 23]
4,< 100,COc1nc(-c2cccc(-c3cccc(Nc4nccc5sc(CNCC#N)nc45)c3Cl)c2Cl)ccc1CNC[C@@H]1CCC(=O)N1 [Compound 24]
5,< 100,COc1nc(-c2cccc(-c3cccc(Nc4nccc5sc(CNCC(=O)O)nc45)c3Cl)c2Cl)ccc1CN1CCC2(CNC(=O)C2)C1 (centres unmarked) [Compound 25]
6,100 to 1000,COc1nc(-c2cccc(-c3cccc(Nc4nccc5sc(CNCC(=O)O)nc45)c3Cl)c2Cl)cnc1CNC[C@@H]1CCC(=O)N1 [Compound 26]
7,< 100,COc1nc(-c2cccc(-c3cccc(Nc4nccc5sc(CNCC(=O)O)nc45)c3Cl)c2Cl)cc(C)c1CNC[C@@H]1CCC(=O)N1 [Compound 27]
8,< 100,COc1nc(-c2cccc(-c3cccc(Nc4nccc5sc(CNCC(=O)O)nc45)c3Cl)c2Cl)c(Cl)cc1CNC[C@@H]1CCC(=O)N1 [Compound 28]
9,< 100,COc1nc(-c2cccc(-c3cccc(Nc4nccc5sc(CN6CC(NC(C)=O)C6)nc45)c3Cl)c2Cl)ccc1CN1CC2(CCC(=O)N2)C1 [Compound 29]
10,< 100,COc1nc(-c2cccc(-c3cccc(Nc4nccc5sc(CNCC(=O)O)nc45)c3Cl)c2Cl)cc(C)c1CN1CC2(CCC(=O)N2)C1 [Compound 30]
11,< 100,COc1nc(-c2cccc(-c3cccc(Nc4nccc5sc(CN6C[C@@H](O)CC6=O)nc45)c3Cl)c2Cl)ccc1CN1CC2(CCC(=O)N2)C1 [Compound 31]
12,< 100,COc1nc(-c2cccc(-c3cccc(Nc4nccc5sc(CN6CC(C(=O)O)C6)nc45)c3Cl)c2Cl)ccc1CN1CC2(CCC(=O)N2)C1 [Compound 32]
13,< 100,COc1nc(-c2cccc(-c3cccc(Nc4nccc5sc(CN6CCC[C@H](C(=O)O)C6)nc45)c3Cl)c2Cl)ccc1CN1CC2(CCC(=O)N2)C1 [Compound 33]
14,< 100,COc1nc(-c2cccc(-c3cccc(Nc4nccc5sc(CNCc6nn[nH]n6)nc45)c3Cl)c2Cl)ccc1CN1CC2(CCC(=O)N2)C1 [Compound 39]
15,< 100,COc1nc(-c2cccc(-c3cccc(Nc4nccc5sc(CN6CCC(C(=O)O)CC6)nc45)c3Cl)c2Cl)ccc1CNC[C@@H]1CCC(=O)N1 [Compound 40]
16,< 100,COc1nc(-c2cccc(-c3cccc(Nc4nccc5sc(CN6CCC[C@@H]6C(=O)O)nc45)c3Cl)c2Cl)ccc1CNC[C@@H]1CCC(=O)N1 [Compound 41]
17,< 100,COc1nc(-c2cccc(-c3cccc(Nc4nccc5sc(CN6CCCC[C@@H]6C(=O)O)nc45)c3Cl)c2Cl)ccc1CNC[C@@H]1CCC(=O)N1 [Compound 42]
18,< 100,COc1cc(-c2cccc(-c3cccc(Nc4nccc5sc(CN6CCC(C(=O)O)CC6)nc45)c3Cl)c2Cl)nc(C)c1CNC[C@@H]1CCC(=O)N1 [Compound 43]
19,< 100,COc1nc(-c2cccc(-c3cccc(Nc4nccc5sc(CN6CC[C@H](C(=O)O)C6)nc45)c3Cl)c2Cl)cc(C)c1CNC[C@@H]1CCC(=O)N1 [Compound 44]
20,< 100,COc1nc(-c2cccc(-c3cccc(Nc4nccc5sc(CN6CC[C@@H](C(=O)O)C6)nc45)c3Cl)c2Cl)cc(C)c1CNC[C@@H]1CCC(=O)N1 [Compound 45]
21,< 100,COc1nc(-c2cccc(-c3cccc(Nc4nccc5sc(CN6CCC7(CNC(=O)C7)C6)nc45)c3Cl)c2Cl)cc(C)c1CNC[C@@H]1CCC(=O)N1 (some centres unmarked) [Compound 46]
